Counter-ions that a name gives are not always drawn. Like-named read-outs stand apart in the source and are kept apart here.
Legend:
Format in all cases: biochemical
[1] = molecular target: phosphorylated p-38-alpha kinase (Homo sapiens, UniProt Q16539); test: P-38 alpha kinase assay P1 (coupled spectrophotometric, 2 h pre-incubation)
[2] = molecular target: B-Raf(V599E) kinase (Homo sapiens, UniProt P15056, V600E); test: B-Raf(V599E) kinase assay B1 (construct 1, MEK1 substrate, coupled spectrophotometric)
Chain of B-Raf(V599E) kinase (P15056 with tags, fused parts or gaps V600E): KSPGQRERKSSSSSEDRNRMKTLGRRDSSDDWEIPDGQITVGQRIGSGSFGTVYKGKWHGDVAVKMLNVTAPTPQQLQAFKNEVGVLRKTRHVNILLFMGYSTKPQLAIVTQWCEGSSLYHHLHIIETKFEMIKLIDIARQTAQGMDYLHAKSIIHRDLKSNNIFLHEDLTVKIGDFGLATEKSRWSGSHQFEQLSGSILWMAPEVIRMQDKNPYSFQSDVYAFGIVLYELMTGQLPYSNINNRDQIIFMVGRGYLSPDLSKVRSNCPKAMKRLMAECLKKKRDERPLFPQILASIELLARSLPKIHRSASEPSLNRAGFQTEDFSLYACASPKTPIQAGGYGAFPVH
Method: The test compounds were incubated with the reaction mixtureat 30° C. for 2 h. […] The reaction rate was calculated using the […] time frame. […] IC50 values were calculated from a series of percent inhibition values determined at a range of inhibitor concentrations using software routines as implemented in the GraphPad Prism software package.

[3] = molecular target: T1, Abl kinase (Homo sapiens, UniProt P00519); test: Abl kinase assay A1 (pyruvate kinase/lactate dehydrogenase coupled, spectrophotometric)
T1 sequence (P00519 229-512): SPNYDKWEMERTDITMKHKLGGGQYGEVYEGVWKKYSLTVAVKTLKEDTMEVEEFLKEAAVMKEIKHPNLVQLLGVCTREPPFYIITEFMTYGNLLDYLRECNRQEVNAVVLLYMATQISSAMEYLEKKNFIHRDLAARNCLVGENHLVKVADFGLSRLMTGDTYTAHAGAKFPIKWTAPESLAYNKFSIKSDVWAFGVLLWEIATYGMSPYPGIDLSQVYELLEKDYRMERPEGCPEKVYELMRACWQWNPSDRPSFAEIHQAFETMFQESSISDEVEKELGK
Method: (§1) IC50 values were calculated from a series of percent inhibition values determined at a range of inhibitor concentrations using software routines as implemented in the GraphPad Prism software package.

[4] = molecular target: T2, KDR kinase (Homo sapiens, UniProt P35968, DEL940-989/E990V); test: KDR kinase assay K1 (pyruvate kinase/lactate dehydrogenase coupled, spectrophotometric)
T2 sequence (P35968 with tags, fused parts or gaps DEL940-989/E990V): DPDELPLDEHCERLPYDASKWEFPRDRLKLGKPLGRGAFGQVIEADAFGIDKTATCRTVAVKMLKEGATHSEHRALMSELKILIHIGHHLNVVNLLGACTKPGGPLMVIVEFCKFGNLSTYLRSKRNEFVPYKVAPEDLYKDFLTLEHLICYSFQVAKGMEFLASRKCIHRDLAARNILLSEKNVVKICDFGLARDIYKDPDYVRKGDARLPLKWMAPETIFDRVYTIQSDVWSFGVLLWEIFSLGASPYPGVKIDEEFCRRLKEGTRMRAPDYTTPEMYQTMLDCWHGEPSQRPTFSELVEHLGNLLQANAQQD
Method: as §1

[5] = molecular target: T2, KDR kinase; test: KDR kinase assay K2 (as K1, 2.1 nM enzyme, 2 h pre-incubation, 1.0 mM ATP); details: Method K2; read-out: KDR Data (IC50)
Method: as §1

[6] = method P1 (2 h pre-incubation), read-out: P-38 Data
[7] = Method A1, read-out: Abl Data (IC50)
[8] = Method K1, read-out: KDR Data (IC50)

Chain of phosphorylated p-38-alpha kinase (Q16539 1-360 isoform Q16539-2): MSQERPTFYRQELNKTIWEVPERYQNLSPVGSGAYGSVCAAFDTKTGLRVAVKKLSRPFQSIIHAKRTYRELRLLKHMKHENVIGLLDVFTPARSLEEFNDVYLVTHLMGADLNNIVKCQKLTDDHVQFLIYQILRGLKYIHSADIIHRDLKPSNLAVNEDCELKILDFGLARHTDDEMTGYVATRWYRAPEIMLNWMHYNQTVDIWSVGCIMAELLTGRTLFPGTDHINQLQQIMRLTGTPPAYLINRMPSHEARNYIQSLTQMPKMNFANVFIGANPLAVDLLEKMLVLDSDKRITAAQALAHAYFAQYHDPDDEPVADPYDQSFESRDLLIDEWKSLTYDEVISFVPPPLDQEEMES

Structure (SMILES)	IC50 [1, 6] [nM]	IC50 [2] [nM]	IC50 [3, 7] [nM]	IC50 [4, 8] [nM]	IC50 [1] [nM]	IC50 [3] [nM]	IC50 [4] [nM]	IC50 [5] [nM]
CC(C)(C)c1cc(NC(=O)Nc2cccc(Cl)c2Cl)n(-c2ccc(CCO)cc2)n1 [Example 45, 1-{3-t-butyl-1-[4-(2-hydroxyethyl)-phenyl]-1H-pyrazol-5-yl}-3-(2,3-dichlorophenyl)urea]	5	6.2	780	360				
CC(C)(C)c1cc(NC(=O)Nc2cccc(Cl)c2Cl)n(-c2cccc(CCC(=O)O)c2)n1 [Example 46, 3-(3-{3-t-Butyl-5-[3-(2,3-dichloro-phenyl)ureido]-1H-pyrazol-1-yl}-phenyl)propionic acid]	6	3.3	2500	170				
CC(C)(C)c1cc(NC(=O)Nc2cccc(Cl)c2Cl)n(-c2cc(CO)c3ccccc3c2)n1 [Example 60, 1-[5-t-butyl-2-(4-hydroxymethylnaphthalen-2-yl)-2H-pyrazol-3-yl]-3-(2,3-dichloro-phenyl)urea]	18	2.6	63	62				
CC(C)(C)c1cc(NC(=O)Nc2cccc(Cl)c2Cl)n(-c2cc(CN)c3ccccc3c2)n1 [Example 69, 1-[1-(4-(aminomethyl)naphthalen-2-yl)-3-t-butyl-1H-pyrazol-5-yl]-3-(2,3-dichlorophenyl)urea]	110	4.2	140	400				
CC(C)(C)c1cc(NC(=O)Nc2cccc(Cl)c2Cl)n(-c2cc(CNC(=O)NS(C)(=O)=O)c3ccccc3c2)n1 [Example 75, 1-{3-t-butyl-1-[1-(methanesulfonylureidoamidomethyl)naphthalen-3-yl]-1H-pyrazol-5-yl}-3-(2,3-dichlorophenyl-1-yl)urea]	6	4.2	63	140				
CC(C)(C)c1cc(NC(=O)Nc2cccc(Cl)c2Cl)n(-c2ccc3c(c2)NCC3)n1 [Example 112, 1-(3-t-butyl-1-(indolin-6-yl)-1H-pyrazol-5-yl)-3-(2,3-dichlorophenyl)urea]	12	2.9	480	210				
CC(C)(C)c1cc(NC(=O)Nc2cccc(Cl)c2Cl)n(-c2ccc3c(c2)C(=O)NCC3)n1 [Example 122, 1-[3-t-butyl-1-(1-oxo-1,2,3,4-tetrahydroisoquinolin-7-yl)-1H-pyrazol-5-yl]-3-(2,3-di-chlorophenyl)urea]	130	11	2800	1400				
CC(=O)N1CCc2ccc(-n3nc(C(C)(C)C)cc3NC(=O)Nc3cccc(Cl)c3Cl)cc2C1 [Example 126, 1-[1-(2-acetyl-1,2,3,4-tetrahydroisoquinolin-7-yl)-3-t-butyl-1H-pyrazol-5-yl]-3-(2,3-dichlorophenyl)urea]	10	6.5	440	210				
CC(C)(C)c1cc(NC(=O)Nc2cccc(Cl)c2Cl)n(-c2ccc3c(c2)CN(S(C)(=O)=O)CC3)n1 [Example 127, 1-{3-t-butyl-1-[2-(methanesulfonyl)-1,2,3,4-tetrahydroisoquinolin-7-yl]-1H-pyrazol-5-yl}-3-(2,3-dichlorophenyl)urea]	13	3.4	220	220				
CC(C)(C)c1cc(NC(=O)Nc2cccc(Cl)c2Cl)n(-c2ccc3c(c2)C(N)=NCC3)n1 [Example 129, 1-[1-(1-amino-3,4-dihydroisoquinolin-7-yl)-3-t-butyl-1H-pyrazol-5-yl]-3-(2,3-dichlorophenyl)urea]	130	4.2	270	500				
CC(C)(C)c1cc(NC(=O)Nc2cccc(Cl)c2Cl)n(-c2ccc3c(c2)CCC(=O)N3)n1 [Example 131, 1-[3-t-butyl-1-(2-oxo-1,2,3,4-tetrahydroquinolin-6-yl)-1H-pyrazol-5-yl]-3-(2,3-dichlorophenyl)urea]	33	1.9	280	77				
CC(C)(C)c1cc(NC(=O)Nc2cccc(Cl)c2Cl)n(-c2ccc3c(c2)CCCN3)n1 [Example 135, 1-[3-t-butyl-1-(1,2,3,4-tetrahydroquinolin-6-yl)-1H-pyrazol-5-yl]-3-(2,3-dichlorophenyl)urea hydrochloride]		4.5			44	840	270	
CC(C)(C)c1cc(NC(=O)Nc2cccc(Cl)c2Cl)n(-c2ccc3c(c2)CCCN3C(=N)N)n1 [Example 136, 1-[3-t-butyl-1-(1-amidino-1,2,3,4-tetrahydroquinolin-6-yl]-1H-pyrazol-5-yl)-3-(2,3-dichlorophenyl)urea]	130	4.9	100	29				
CC(C)(C)c1cc(NC(=O)Nc2cccc(Cl)c2Cl)n(-c2ccc3c(c2)CCNC3=O)n1 [Example 137, 1-(3-t-butyl-1-(1-oxo-1,2,3,4-tetrahydroisoquinolin-6-yl)-1H-pyrazol-5-yl)-3-(2,3-dichloro-phenyl)urea]	55	2.5	150	1000				
CC(C)(C)c1cc(NC(=O)Nc2cccc(Cl)c2Cl)n(-c2ccc3c(c2)CCN(S(C)(=O)=O)C3)n1 [Example 154, 1-(3-t-butyl-1-(2-(methylsulfonyl)-1,2,3,4-tetrahydroisoquinolin-6-yl)-1H-pyrazol-5-yl)-3-(2,3-dichlorophenyl)urea]	12	2.9	270	92				
CC(C)(C)c1cc(NC(=O)Nc2cccc(Cl)c2Cl)n(-c2ccc3c(c2)CCNC(=O)C3)n1 [Example 165, 1-(3-t-butyl-1-(2-oxo-2,3,4,5-tetrahydro-1H-benzo[d]azepin-7-yl)-1H-pyrazol-5-yl)-3-(2,3-dichlorophenyl)urea]	7	2.4	200	210				
CC(C)(C)c1cc(NC(=O)Nc2cccc(Cl)c2Cl)n(-c2ccc3c(c2)CCNCC3)n1 [Example 166, 1-(3-t-butyl-1-(2,3,4,5-tetrahydro-1H-benzo[d]azepin-7-yl)-1 H-pyrazol-5-yl)-3-(2,3-dichlorophenyl)urea]	61	5.7	230	210				
CC(C)(C)c1cc(NC(=O)Nc2cccc(Cl)c2Cl)n(-c2ccc3c(c2)CN[C@H](C(=O)O)C3)n1 [Example 177, (3S)-7-(3-t-butyl-5-(3-(2,3-dichlorophenyl)ureido)-1H-pyrazol-1-yl)-1,2,3,4-tetra-hydroisoquinoline-3-carboxylic acid]	43	6.3	1800	230				
CC(C)(C)c1cc(NC(=O)Nc2cccc(Cl)c2Cl)n(-c2ccc3c(c2)CN[C@H](C(N)=O)C3)n1 [Example 178, 1-(3-t-butyl-1-((3S)-3-carbamoyl-1,2,3,4-tetrahydroisoquinolin-7-yl)-1 H-pyrazol-5-yl)-3-(2,3-dichlorophenyl)urea]	46	2	230	180				
CC(C)(C)c1cc(NC(=O)Nc2cccc(Cl)c2Cl)n(-c2ccc3c(c2)C[C@@H](C(=O)O)NC3)n1 [Example 186, (3S)-6-(3-t-butyl-5-(3-(2,3-dichlorophenyl)ureido)-1H-pyrazol-1-yl)-1,2,3,4-tetrahydroisoquinoline-3-carboxylic acid]	50	9.2	60	900				
CC(C)(C)c1cc(NC(=O)N[C@H]2CCc3ccccc32)n(-c2ccc3c(c2)CCNC3)n1 [Example 199, 1-(3-t-butyl-1-(1,2,3,4-tetrahydroisoquinolin-6-yl)-1H-pyrazol-5-yl)-3-((S)-2,3-dihydro-1H-inden-1-yl)urea]								34400
CC(C)(C)c1cc(NC(=O)Nc2ccc(F)cc2F)n(-c2ccc3c(c2)CCN(S(C)(=O)=O)C3)n1 [Example 200, 1-(3-t-butyl-1-(2-(methylsulfonyl)-1,2,3,4-tetrahydroisoquinolin-6-yl)-1H-pyrazol-5-yl)-3-(2,4-difluorophenyl)urea]								2700
CC(C)(C)c1cc(NC(=O)Nc2ccc(F)c(F)c2)n(-c2cccc(C#N)c2)n1 [Example 206, 1-(3-t-butyl-1-(3-cyanophenyl)-1H-pyrazol-5-yl)-3-(3,4-difluorophenyl)urea]								480
CC(C)(C)c1cc(NC(=O)Nc2cc(F)cc(F)c2)n(-c2cccc(C#N)c2)n1 [Example 208, 1-(3-t-butyl-1-(3-cyanophenyl)-1H-pyrazol-5-yl)-3-(3,5-difluorophenyl)urea]								470
CC(C)(C)c1cc(NC(=O)Nc2cc(F)cc(F)c2F)n(-c2cccc(C#N)c2)n1 [Example 209, 1-(3-t-butyl-1-(3-cyanophenyl)-1H-pyrazol-5-yl)-3-(2,3,5-trifluorophenyl)urea]								260
